Each structure is given as a SMILES string.

`COc1ccc(NC(=O)OCC2(C(C)=O)CC3C=CC2C3)cc1C` (stereo unspecified): the melting point was in the range of 121 to 122 °C.
To `CC(C)[C@@H]1C[C@@H]([C@H](CC2CCCCC2)N=[N+]=[N-])OC1=O` belongs 38.5 to 39 °C; to `COc1cc2c(cc1C#N)C1(CO2)C(=O)N(Cc2ccccn2)c2ccccc21` (stereo unspecified), 187 to 189 °C; to `CCCCNCc1ccc2cc(O)ccc2c1`, 108 to 112 °C.
`O=C(Cc1ccc(Cl)cc1)N1CCc2cc(S(=O)(=O)N3CCN(c4cccc(Cl)c4)CC3)ccc21` gave a melting point of 186 to 187 °C.
As for `CCCC1C/C(=C\C(=O)NC2CC2)c2cc(F)ccc21` (stereo unspecified), the figure is 94 to 97 °C.
As for `O=C(O)c1cc(OCCCCCCOc2ccc(-c3ccccc3)cc2)ccc1OCc1ccccc1`, the figure is 131 to 133 °C; as for `O=C(O)Cc1ccc(NC(=O)c2ccc(Cl)cc2)cc1`, 252 °C; as for `CCCc1c(OCC2Cc3cc(CC(=O)OC)ccc3O2)ccc(C(C)=O)c1O` (stereo unspecified), 77 to 78 °C.
To `O=C(c1ccccc1)C1CCN(CC2CN(c3ccccc3)C(=O)O2)CC1` (stereo unspecified) belongs 104 to 105 °C; to `CN(C)C1(c2ccc(F)cc2)CCC(N2CCC(c3c[nH]c4ccccc34)C2)CC1` (stereo unspecified), 248 to 250 °C; to `CCCc1nc2c(N)nc3cc(Cl)ccc3c2s1`, 159 to 160 °C.
The molecule `CSc1cc(-c2ccc(C(F)(F)F)cc2)nc(-c2cccc(C(F)(F)F)c2)c1` registered a melting point of 98.5 °C.
As for `CC(C)(C)CC(C)(C)c1cc(-n2nc3ccc(-c4ccsc4)cc3n2)c(O)c(C(C)(C)c2ccccc2)c1`, the melting point was 147 to 149 °C.
As for `Cc1cnc(I)c(OCc2ccccc2)c1`, the figure is 83 to 85 °C; as for `CCCCC(C(=O)OCC)S(=O)(=O)c1ccc(OC)cc1` (stereo unspecified), 62 °C.
To `O=c1cc(-c2ccccc2)cc2n1CCN2Cc1ccccc1` belongs 165 to 167 °C; to `Nc1csc(-c2ccccc2)c1`, 76 to 78 °C.
Take `CN1C2CCC1CC(=NO)C2`: the melting point fell in the range of 140 to 142 °C.
The molecule `CC(=O)CN1CCc2c(c(=O)oc3cc(C)ccc23)C1` returned a melting point of 128 to 129 °C.
To `N#Cc1cccc(-c2cc(-c3ccc(C#N)cc3Cl)no2)c1` belongs 221 to 223 °C; to `C=CCCc1sc(-c2nccs2)c2c1C(=O)CC(C)(C)C2`, 62 to 65 °C.
As for `Cc1cccc(Nc2nc(N)ncc2S(=O)(=O)NC(C)(C)C)c1`, the figure is 174 to 178 °C; as for `O=C(COc1cc(=O)oc2ccccc12)c1ccccc1`, 183 to 184 °C; as for `Cc1ccc(C(=O)N(C)C)cc1-c1nc(NC2CCN(C)CC2)nc2c1CNC(=O)N2c1c(F)cccc1F`, 163 to 165 °C.
To `Cn1ccnc1S(=O)c1ccc(Cl)cc1` (stereo unspecified) belongs 96 to 97 °C.
For the molecule `Clc1ccc2c(c1)CCC(N1CCCC1)=C2`, the melting point fell in the range of 117 to 118 °C.
As for `CC1(C)CN(C2CC3(C)C(CCC4C5CCC(C#N)C5(C)CCC43)CC2O)CCO1` (stereo unspecified), the figure is 170 to 173 °C.
To `CN1C(=O)NC2(CCN(C(=O)OC(C)(C)C)CC2)C1=O` belongs 206 to 208 °C; to `CCC(O)Cn1cc(-c2cccc(C(F)(F)F)c2)cn1` (stereo unspecified), 77 to 79 °C; to `Cc1nn(-c2cc(OC(C)C(=O)NS(C)(=O)=O)c(Cl)cc2Cl)c(=O)n1C(F)F` (stereo unspecified), 185 to 188 °C.
As for `CCn1c(=O)c2[nH]c(/C=C/c3ccc(OCOC)cc3)nc2n(CC)c1=O`, the figure is 270 to 271 °C.
Turning to `Nc1n[nH]c2nc(N3CCOCC3)cc(-c3ccccc3)c12`, the melting point fell in the range of 178 to 180 °C.
To `CC(C)(O)C(O)c1cnc(C2OCCO2)s1` (stereo unspecified) belongs 130 to 131 °C; to `COc1cc(N)c(C(=O)CS(C)=O)cc1OC` (stereo unspecified), 162 to 164 °C.
To `CC1(C)CC([N+]([O-])=Cc2ccccc2)CC(C)(C)N1` belongs 113 °C; to `CC(C)(C)OC(=O)N1CCC(OCc2ccccc2)C1CC(=O)Cn1cnc2ccc(F)c(F)c2c1=O` (stereo unspecified), 211 °C; to `CC(=O)C(=Cc1ccc(S(C)(=O)=O)c(F)c1)C(C)=O`, 140 to 143 °C.
To `CC12CC=C3c4ccc(O)cc4CCC3(C=C(F)F)C1CCC2O` (stereo unspecified) belongs 103 to 106 °C; to `CC(C)CNc1cccc(-c2ccnc3c(C(=O)c4cccs4)cnn23)c1`, 186 to 188 °C.
`C[Si](C)(C1C=Cc2c(-c3ccccc3)cccc21)C1C=Cc2c(-c3ccccc3)cccc21` (stereo unspecified) yielded a melting point of 109 to 110 °C.
For the molecule `COc1ccc(N(C)CCN(C)CCCN2CCc3cc(OC)c(OC)cc3NC2=O)cc1OC`, the melting point fell in the range of 117 to 119 °C.
As for `CSCCn1c2ccc(C)cc2c(=O)c2c1cnn2C`, the figure is 125 °C.
To `C=C(C(=O)OC(C)(C)C)C(O)c1ccc(C(=O)OC)cc1` (stereo unspecified) belongs 70 °C.
To `CCC(C)(C)NCC(O)c1ccc(N)c(C#N)c1` (stereo unspecified) belongs 143 °C; to `Cc1nc(C(=O)NC(C)(CO[N+](=O)[O-])CO[N+](=O)[O-])cs1`, 78 to 81 °C.
The molecule `COc1ccc(C=CC(=O)c2cccc([N+](=O)[O-])c2)c(OC)c1` registered a melting point of 88.1 to 88.7 °C.
To `CCC(=O)N1CCC(NC(=O)Nc2ccc(C(=O)OC)cc2)CC1` belongs 201 to 204 °C.
As for `Cc1ccc(OC2SCC(O)C(O)C2O)c(-c2ccoc2)n1` (stereo unspecified), the figure is 162 °C; as for `CCOC(=O)c1cn2c3c(cc(F)cc3c1=O)C1CCCCC12` (stereo unspecified), 97 to 98 °C; as for `CC(C)(c1ccccc1)C(S)C(=O)O` (stereo unspecified), 70 to 73 °C.
In the case of `CCOC(=O)c1cn(CC)c2c(C)c(F)c(F)cc2c1=O`, the melting point lay within 177 to 180 °C.
To `Cn1cc(-c2cccc(Br)c2)c(=O)c(-c2ccccc2Cl)c1` belongs 177 to 179 °C; to `COc1ccc(CNc2ncc3c(n2)N(c2ccccc2)C(=O)N(c2c(Cl)cccc2Cl)C3)cc1`, 56 °C; to `O=C(O)c1ccc(OCC2CN(c3ccc([N+](=O)[O-])cc3)C(=O)O2)cc1` (stereo unspecified), 236 to 238 °C.
`COP(=O)(Cc1cccc(CP(=O)(OC)OC)c1F)OC` registered a melting point of 116 to 118 °C.
As for `COc1cccc2c1S(=O)(=O)c1ccccc1C2(CCOS(C)(=O)=O)CCOS(C)(=O)=O`, the figure is 200 to 202 °C; as for `CCOC(=O)Cc1ccc(SCc2cc(C)ccc2C(=O)O)cc1`, 94 °C; as for `Cc1ccc(-c2c(CO)n(CC(C)C)c(=O)c3ccc(OCc4ccccc4)cc23)cc1`, 74 to 76 °C.
For `N=C(NO)c1ccc(-c2ccc([N+](=O)[O-])c(C(F)(F)F)c2)o1`, the melting point worked out at 221 °C.
`C=C1N(C(C)C)C(=O)OC12CCN(C(=O)NC(=O)c1cccnc1Cl)CC2` displayed a melting point of 186 to 188 °C.
To `CSc1nccn1CC(=O)O` belongs 176 °C; to `CC(=O)c1csc(C(=O)C2C(=O)N(C(N)=O)c3ccc(Cl)cc32)c1` (stereo unspecified), 230 to 233 °C.
As for `COc1ccc(-n2c(-c3ccccc3)cc3c2CCCC3)cc1`, the figure is 132 to 133 °C.
`CC(=O)Nc1cc(C(F)(F)F)ccc1N1CCOCC1`: the melting point was determined as 85 °C.
As for `O=C(NO)NCCc1cc2ccccc2o1`, the figure is 157 to 158 °C; as for `O=C1CC2(C(=O)N1)C(=O)N(Cc1ccc(Br)cc1)c1ccccc12` (stereo unspecified), 218 to 220 °C; as for `CN(C)c1ccc(-n2c(N)nc3ccccc32)cc1-c1ccco1`, 208 to 210 °C.
To `CCOC(=O)c1ccc2nc3ccsc3c(=O)n2c1` belongs 188 to 190 °C.
As for `COC(=O)[C@@H](O)[C@@H](OC(C)=O)[C@H](OC(C)=O)[C@H](C=O)OC(C)=O`, the figure is 104 to 110 °C; as for `CON=C(C)c1cc(C[C@H](NC(=O)c2c(Cl)cccc2Cl)C(=O)O)ccc1-c1ccccc1OC`, 107 °C; as for `COC(=O)c1nc(Br)cc(Br)c1OCc1ccccc1`, 75 to 76 °C.
`CC(C(O)c1ccc(OC(=O)c2ccc(CNC(C)(C)C)cc2)cc1)N1CCC(O)(c2ccccc2)CC1` (stereo unspecified) displayed a melting point of 195 to 197 °C.
As for `Cc1oc(-c2ccccc2)nc1CC=Cc1ccc(CCC2OC(=O)NC2=O)cc1` (stereo unspecified), the figure is 175 to 176 °C; as for `COC(=O)N(C)CCc1ccc2[nH]c(C)c(S(=O)(=O)c3ccccc3)c2c1`, 188 to 191 °C.
To `Clc1ccc(CNc2nc(Cl)cc(Cl)n2)cc1` belongs 154 to 157 °C.
To `O=C(O)c1cc([N+](=O)[O-])ccc1NCc1ccccc1` belongs 238 to 248 °C.
On to `NS(=O)(=O)c1ccc(NC(=O)NC2CCCC2)cc1`, for which the melting point fell in the range of 224 to 226 °C.
As for `CCN(CC)CCCNc1nc(Cl)nc(NCCCN(CC)CC)n1`, the figure is 119 °C; as for `CSc1ncc(CCc2cccnc2)c(=O)[nH]1`, 191 to 192 °C.
As for `Cn1cc(C(F)(F)F)ccc1=O`, the figure is 125 to 129 °C; as for `Ic1nnnn1-c1ccccc1`, 123 to 129 °C.
As for `CC(C)(C)NC(=O)c1ccccc1-c1ccc(CBr)cc1`, the figure is 124 to 126 °C; as for `CC(C)(C)c1nc2cc(N3CCOCC3)c(N=C=S)cc2s1`, 141 to 143 °C; as for `N=C(N)NCCC[C@@H](NC(=O)C(c1ccccc1)c1ccccc1)C(=O)NCc1ccc(CCC(N)=O)cc1`, 207 to 208 °C.
Turning to `COc1cc(C(C)=O)ccc1OCCN1C2CCC1CC(c1n[nH]c3ccccc13)C2` (stereo unspecified), the melting point is 154 to 155 °C.
With `O=c1c(-c2ccccc2)c[nH]n1-c1cccc(Cl)c1`, the melting point is 211 to 212 °C.
To `C=Cc1cc2ccc(-c3ccc(C(=O)OC)cc3)cc2cc1C12CC3CC(CC(C3)C1)C2` belongs 221 to 222 °C; to `O=C(c1ccccc1)N(c1ccccc1)c1ccc(O)cc1`, 257 to 260 °C; to `CC#CCOc1ccc(SC(C(=O)O)c2ccc(-c3cccs3)cc2)cc1` (stereo unspecified), 137 °C.
As for `O=S1(=O)c2cccc3c(Cl)ccc(c23)N1CCCN1CC=C(c2ccccc2)CC1`, the figure is 135 °C.

The record behind these values is a melting point compilation (Tetko et al.; mined from patent text by program, amines drawn as free bases though some values may be those of a salt).
